From PubChem BioAssay AID463199 (Broad Institute, 2010)
Calls of active or inactive are those of the source.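 How the source made its calls: active means AC50, the dose giving half-maximal effect, exceeds a fixed cutoff for a compound that rescues yeast growth under heat; inactive means the rest, inconclusive results apart.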

Each compound was assayed on S. cerevisiae Burl-1 ts mutant growth, BacTiter-Glo, 38.5C 24 h (assay: growth induction of Burl-1 ts yeast mutant, dose response, counter-screen for SUMOylation pathway inhibitor project, whole organism, S. cerevisiae, luminescence (AID 463199)).

Compound | AC50
CC(C)C(CC(=O)NCc1ccco1)c1ccco1 (stereo not given) | > 42 µM (inactive)
CSCCc1nc(SCC(=O)Nc2nnc(C)s2)[nH]c1C | > 42 µM (inactive)
COc1cc(NC(=O)c2cc(Cl)ccc2Cl)ccc1-c1cc2ccccc2oc1=O | > 42 µM (inactive)
CC(=O)N1CCN(CC(O)COc2ccc(OCc3ccccc3)cc2)CC1 (stereo not given) | > 42 µM (inactive)
CCCCCCNc1c(C(=O)OCC)c(=O)[nH]c2ccccc12 | > 42 µM (inactive)
CC(N=C(NC#N)Nc1ccncc1)C(C)(C)C (stereo not given) | > 42 µM (inactive)
CN(C)/C=N/NC(=O)c1ccccc1 | > 42 µM (inactive)
CN1C(=O)NC(=O)[C@]2(Cc3ccccc3N3CCN(c4ccccc4)CC32)C1=O (stereo not given in full) | > 42 µM (inactive)
O=Cc1ccccc1OCCN1CCCC1=O | > 42 µM (inactive)
Cc1cccc(N(Cc2ccccc2)C(=O)CSC(C)C(=O)Nc2cc(C)on2)c1 (stereo not given) | > 42 µM (inactive)
O=C(CCCC(=O)N(CC(=O)NC1CCCC1)c1cccc(F)c1)Nc1ccccn1 | > 42 µM (inactive)
CC1(C)Cc2nc3sc4c(OCc5ccccc5)ncnc4c3cc2CO1 | > 42 µM (inactive)
O=C(O)c1ccc(COc2c(F)c(F)cc(F)c2F)cc1 | > 42 µM (inactive)
COc1cccc(NC(=S)NC(=O)c2cncc(Br)c2)c1 | > 42 µM (inactive)
CCOc1ccc(-c2nnc(SCC(=O)N3CCCC3)o2)cc1 | > 42 µM (inactive)
Cc1ccc(C(=O)c2cc([N+](=O)[O-])ccc2N2CCCCC2)cc1C | > 42 µM (inactive)
CN(C)S(=O)(=O)c1cccc(NC(=O)COc2nc3ccccc3nc2N2CCOCC2)c1 | > 42 µM (inactive)
CC1CCN(Cc2nc3c(c(=O)n(C)c(=O)n3C)n2CCc2ccccc2)CC1 | > 42 µM (inactive)
CCOc1cc(C(=S)N2CCOCC2)ccc1OC(=O)c1ccc(C)cc1 | > 42 µM (inactive)
Cc1ccc(O)c(C(=O)CC(=O)c2cccc(F)c2)c1 | 20.1 µM
Cc1cc2nc(CCl)cc(=O)n2[nH]1 | > 42 µM (inactive)
CCCNc1nc2ccccc2c(=O)[nH]1 | > 42 µM (inactive)
Cc1ccc(NC(=O)C(CC(C)C)NC(=O)C2CCC(C)CC2)nc1 (stereo not given) | > 42 µM (inactive)
O=C(CCSc1nnnn1-c1ccccc1)N1CCOCC1 | > 42 µM (inactive)
CCCC(=O)NC(C)c1nc2ccccc2[nH]1 (stereo not given) | > 42 µM (inactive)

Compound | AC50
COc1ccc2c(c1)[C@H]1[C@H](CO2)[C@H](c2ccccc2)[C@]2(C)C(=O)Nc3ccc(F)cc3C(=O)N12 | > 42 µM (inactive)
Cc1ccc(CN(C)C(=O)c2ccc3c(c2)NC(=O)CS3)o1 | > 42 µM (inactive)
COC(=O)c1ccc(N2C(=O)CC(NCc3ccccc3)C2=O)cc1 (stereo not given) | > 42 µM (inactive)
COc1ccc2c(c1)OC[C@H]1[C@H]2N2C(=O)c3cc(Br)ccc3NC(=O)[C@@]2(C)[C@H]1c1ccccc1 | > 42 µM (inactive)
CN(C)CCNC(=O)c1onc(CSc2ccc(F)c(F)c2)c1C(=O)NCCN(C)C | > 42 µM (inactive)
CC(=O)Nc1cccc2c1C(=O)N(c1ccccc1C)C2=O | > 42 µM (inactive)
COCCn1c(=O)[nH]c(=O)c2cc(C(=O)c3cc(Cl)ccc3O)cnc21 | > 42 µM (inactive)
N#CCN(N=Nc1ccccc1)c1ccccc1 | > 42 µM (inactive)
COc1ccc(S(=O)(=O)N2CCN(c3ccc(F)cc3)CC2)cc1C(=O)N1CCOCC1 | > 42 µM (inactive)
O=C(COc1ccc(F)cc1Cl)N(Cc1nnc(-c2ccccc2Cl)o1)C1CC1 | > 42 µM (inactive)
O=C(c1ccc(COc2ccccc2Cl)o1)N1N=C(C(F)F)CC1(O)C(F)F (stereo not given) | > 42 µM (inactive)
CC(=O)c1ccc(Oc2cc(C)nc(N3CCOCC3)n2)cc1 | > 42 µM (inactive)
O=C(CCl)N(Cc1cc(=O)[nH]c2ccccc12)c1ccccc1 | > 42 µM (inactive)
CC1(C(=O)Nc2cccc(-n3cnnn3)c2)Cc2ccccc2C(=O)O1 (stereo not given) | > 42 µM (inactive)
Cc1ccc(C(=O)NC(Cc2c[nH]c3ccccc23)C(=O)O)o1 (stereo not given) | > 42 µM (inactive)
CN(CC(=O)Nc1ccccc1Sc1ccccc1)Cc1nc2ccccc2c(=O)[nH]1 | > 42 µM (inactive)
CCOC(=O)N1CCN(S(=O)(=O)c2ccc(Br)s2)CC1 | > 42 µM (inactive)
COC(=O)c1cccc(NC(=O)c2ccc[n+]([O-])c2)c1 | > 42 µM (inactive)
O=C(/C=C/c1ccc(Cl)cc1)NCc1ccncc1 | 42 µM
O=C(CSc1nnc(COc2ccccc2Cl)o1)NC(=O)NC1CCCC1 | > 42 µM (inactive)
Cc1ccccc1-c1nc2ccc(Cl)cc2c(=O)n1O | > 42 µM (inactive)
Cc1ccc(S(=O)(=O)NCC(=O)OCC(=O)c2ccc(Br)s2)cc1 | > 42 µM (inactive)
CCN(Cc1ccccc1)Cc1ccc(OCc2ccccc2)c(OC)c1 | > 42 µM (inactive)
COC(=O)CCC(=O)OC1(C)C(=O)C2=CN(CCc3c[nH]c4ccccc34)C(c3ccc(OC)cc3)=CC2=C(Br)C1=O (stereo not given) | > 42 µM (inactive)
COc1cc2cc(C)c3nnc(SCC(=O)Nc4cc(C)on4)n3c2cc1OC | > 42 µM (inactive)

Compound | AC50
S=C(c1ccc(N2CCOCC2)cc1)N1CCCCC1 | > 42 µM (inactive)
Cc1sc(-n2c(C)cc(C=C3C(=O)NC(=O)NC3=O)c2C)c(C#N)c1C | > 42 µM (inactive)
CCC(C)[C@H](NC(=O)Nc1ccc(S(N)(=O)=O)cc1)C(=O)OC (stereo not given in full) | > 42 µM (inactive)
Cc1ccc(S(=O)(=O)N(C)c2ccc(OC(=O)CN3C(=O)NC4(CCCC4)C3=O)cc2)cc1C | > 42 µM (inactive)
Cc1nn(C)cc1CNC(=O)C1CCC(=O)N(Cc2cccc(C(F)(F)F)c2)C1 (stereo not given) | > 42 µM (inactive)
O=[N+]([O-])c1ccccc1CN1CC=C(c2ccc(F)cc2)CC1 | > 42 µM (inactive)
CCOC(C(=O)OCCCN(CC)CC)(c1ccccc1)c1ccccc1 | > 42 µM (inactive)
COc1ccc(NC(=O)C2CCN(c3cc(C)nc(-c4ccccc4)n3)CC2)cc1 | > 42 µM (inactive)
COc1ccc(S(=O)(=O)NC(C)C(=O)NCc2ccccn2)cc1Cl (stereo not given) | > 42 µM (inactive)
O=C(c1ccc([N+](=O)[O-])o1)N1CCN(c2nc3c(Cl)cccc3s2)CC1 | > 42 µM (inactive)
O=C(OC1CCOC1=O)c1cccc(S(=O)(=O)Nc2ccc(F)cc2)c1 (stereo not given) | > 42 µM (inactive)
CCC1(CC)NC(=O)N(CC(=O)N2N=C(c3ccc(Cl)cc3)CC2c2ccco2)C1=O (stereo not given) | > 42 µM (inactive)
COC(=O)[C@@]12CCCCN1[C@H](c1ccc(-c3cccc(Cl)c3)c(OC)c1)[C@H]1C(=O)N(C)C(=O)[C@H]12 | > 42 µM (inactive)
Cc1ccc(NC(=O)CC2CS(=O)(=O)CC2CC(=O)Nc2ccc(C)c(C)c2)cc1C (stereo not given) | 19.2 µM
CN(C)C(=O)c1coc2nc3ccccc3nc12 | > 42 µM (inactive)
Cc1cc(C(F)(F)F)nc(SCC(=O)Nc2cc(C)on2)n1 | > 42 µM (inactive)
CC(C)(C)NC(=O)CN(C(=O)CCC(=O)Nc1nccs1)c1ccc2c(c1)OCCO2 | > 42 µM (inactive)
CCS(=O)(=O)N1CCC(C(=O)N2CCc3ccccc3C2)CC1 | > 42 µM (inactive)
Cn1c(=O)[nH]c(=O)c2c1nc(NCCN)n2CCOc1ccccc1 | > 42 µM (inactive)
CCC(=O)N1CCc2cc(S(=O)(=O)CCC(=O)Nc3cccc(C)n3)ccc21 | > 42 µM (inactive)
COc1ccc(CCNC(=O)CC2C(=O)NCCN2CC(C)(C)C)cc1 (stereo not given) | > 42 µM (inactive)
Cc1ccc2c(c1)C(O)(CC(=O)c1cccnc1)C(=O)N2 (stereo not given) | > 42 µM (inactive)
CC1(C)Cc2c(cnn2-c2ccc(F)cc2)C(NC(=O)CCCN2CCCCC2=O)C1 (stereo not given) | > 42 µM (inactive)
CCN(CC)CCNc1ncnc2c1[nH]c1ccc(OC)cc12 | > 42 µM (inactive)
CC(=O)/C(N)=N/Nc1cccc(Cl)c1 | > 42 µM (inactive)

Compound | AC50
CC(C)N(C(=S)Nc1cccc(S(=O)(=O)N(C)C)c1)c1ccccc1 | > 42 µM (inactive)
COC(=O)c1ccccc1SC(CC(=O)c1ccccc1)c1ccc(F)cc1 (stereo not given) | > 42 µM (inactive)
N/C(=N\N=C\c1ccc(O)cc1)c1nonc1N | > 42 µM (inactive)
CCN(CC)S(=O)(=O)c1ccc(C(=O)NCCc2cc3c(OC)ccc(OC)c3[nH]c2=O)cc1 | > 42 µM (inactive)
CC(C)NC(=O)c1ccccc1-c1ccccc1 | > 42 µM (inactive)
CC(C)[N+]1(C)[C@@H]2CC[C@@H]1CC(OC(=O)C(CO)c1ccccc1)C2 (stereo not given in full) | > 42 µM (inactive)
O=C(NC1CCCCC1)c1n[nH]c2c1CCCCC2 | > 42 µM (inactive)
COc1ccc(OCCC(=O)c2ccc(OC)cc2)cc1 | > 42 µM (inactive)
CN(CP(=O)(O)C(O)c1ccccc1)S(C)(=O)=O (stereo not given) | > 42 µM (inactive)
COC(=O)CN1C(=O)c2cccc3cccc1c23 | > 42 µM (inactive)
CCOC(=O)c1sc2ncn(C(CC)C(=O)OCC)c(=O)c2c1C (stereo not given) | > 42 µM (inactive)
CC(C)Cc1nc(N2CCOCC2)c(C#N)c2c1CCC2 | > 42 µM (inactive)
Cc1ccc(C(=O)NC(NC(=O)c2ccc(C)cc2)C(Cl)Cl)cc1 | > 42 µM (inactive)
S=c1[nH]nc(-c2ccccn2)n1/N=C/c1ccccc1 | > 42 µM (inactive)
COc1ccc(C2CC3(CC(C)(C)NC(=S)N3)Oc3cc(O)cc(C)c32)cc1 (stereo not given) | > 42 µM (inactive)
Cc1nn(C)cc1S(=O)(=O)Nc1ncccn1 | > 42 µM (inactive)
Cc1cccc(CS(=O)(=O)Cc2ccc(C(=O)NCC3CCCO3)o2)c1 (stereo not given) | > 42 µM (inactive)
Cc1ccc(S(=O)(=O)NC2CCCCCCC2)cc1 | > 42 µM (inactive)
CC1C(=O)CC(c2ccccc2)N(C)C1c1ccccc1 (stereo not given) | > 42 µM (inactive)
N#CCC(=O)N/N=C/c1ccc(OS(=O)(=O)c2ccccc2)cc1 | > 42 µM (inactive)
C/C(CC1(O)C(=O)Nc2ccccc21)=N\O (stereo not given) | > 42 µM (inactive)
NC1=NC2(CCCC2)N=C(Nc2ccccc2)N1 | > 42 µM (inactive)
CCNC(=O)C1CC(=O)N(Cc2ccc3c(c2)OCO3)C(=Nc2ccc(F)cc2)S1 (stereo not given) | > 42 µM (inactive)
COC(=O)[C@@H](NC(=O)Nc1ccc(S(N)(=O)=O)cc1)C(C)C | > 42 µM (inactive)
CCNC(=S)NNC(=O)c1ccc(=O)n(Cc2ccccc2)c1 | > 42 µM (inactive)
